# Values of other authors as cited in US6680310B2, “Methods for preventing antipsychotic-induced weight gain” (Corcept Therapeutics, Inc., priority 2001, dated 2004).
# Details: in one study (Kawai, supra)
structure (smiles),measurement,value
"CC#C[C@]1(O)CC[C@H]2[C@@H]3CCC4=CC(=O)CCC4=C3[C@@H](c3ccc(N(C)C)cc3)C[C@@]21C [Mifepristone, 17-beta-hydroxy-11-beta-(4-dimethyl-aminophenyl)-17-alpha(1-propynyl)-estra-4,9-dien-3-one]",fraction of the daily dose excreted in the urine,less than 0.5%
